Tests used:
Assay type in all cases: in vivo
[1] = test system: Housefly [Musca domestica]; test: Housefly contact mortality in dishes (HF), 48 hours; conditions: μg of test compound per 25 female flies
Outline: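 Acetone solutions (with 0.01% peanut oil) dried onto dish bottoms, then 25 female flies, 1-2 days old, caged over the residue with sugar water. Mortality scored at 48 hours; LC50 from dosage-mortality curves, in μg per 25 female flies, top level 100 μg.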

[2] = test system: Black Bean Aphid [Aphis fabae (Scop.)]; test: Black bean aphid spray test on nasturtium (BBA), 48 hours; conditions: percent of test compound in sprayed solution
Outline: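 LC50, given as percent test compound in the sprayed liquid, was calculated from dosage-mortality curves using concentrations from 0.05% downward. Sprays in 50:50 acetone-water went to runoff on ~5 cm nasturtiums carrying 25-50 aphids of mixed ages, one day after infestation. Deaths were counted 48 h later under greenhouse conditions.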

[3] = test system: Tobacco Budworm [Heliothis virescens (Fabricius)] eggs; test: Tobacco budworm eggs (TBW-E); conditions: percent in solution; 2-day old eggs
Outline: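 Paper towel patches bearing 2-day old eggs were dipped in acetone solutions of compound, then set in petri dishes over larval rearing medium at 78° F. Mortality was scored once all control eggs had hatched and larvae were feeding. LC50, from dosage-mortality curves, is given as percent compound in solution.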

[4] = test system: Cabbage Looper [Trichoplusia ni (Hubner)]; test: Cabbage looper leaf dip (CL), 3-5 days; conditions: percent in solution, second-instar larvae
Outline: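 Compounds in 50-50 acetone-water were applied by dipping squash cotyledons (about 1×1.5 in) for 2-3 s; dried leaves went into petri dishes on moist filter paper with 5 second-instar larvae under high humidity. Mortality was scored after 3-5 days; LC50 from dosage-mortality curves, as percent compound in solution.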

[5] = test system: Maize weevil [Sitophilus zeamais (Motschulsky)]; test: Maize weevil on dipped corn seeds (MW), 48 hours; conditions: percent in solution, adult weevils
Procedure: The compounds in Tables 1 and 2 above were tested for insecticidal activity using the following testing procedures. LC50 values, based on the results of these tests and calculated according to dosage-mortality curves, are expressed in Table 3.
Maize weevil [Sitophilus zeamais (Motschulsky)]:
Test compounds were diluted in a 50:50 acetone:water solution. Four corn seeds [Zea mays (L.)] which had been immersed in test solutions for 2-3 seconds and allowed to dry were placed in containers together with 10 adult weevils. The containers were covered and kept at a temperature of about 25° C. Mortality was recorded after 48 hours. Test concentrations ranged from 0.01% down to that at which 50% mortality occurred. The LC50 values are expressed below in Table 3 under the heading "MW" in terms of percent of the test compound in solution.

SMILES | LC50 HF [1] [µg] | LC50 BBA [2] [%] | LC50 TBW E (eggs) [3] [%] | LC50 CL [4] [%] | LC50 MW [5] [%]
Cc1cc(N=C(OCc2ccc(F)c(Oc3ccc(Cl)cc3)c2)C(C)C)ccc1Br [Compound 407] | > 100 | 0.0007 | 0.05 | > 0.1 | > 0.01
COc1ccc(N=C(OCc2ccc(F)c(Oc3ccc(F)cc3)c2)C(C)C)cc1Cl [Compound 408] | < 100 | 0.0005 | 0.02 | 0.0015 | > 0.01
COc1ccc(N=C(OCc2ccc(F)c(Oc3ccccc3)c2)C(C)C)cc1Cl [Compound 409] | < 100 | 0.0005 | 0.025 | 0.0017 | > 0.01
COc1ccc(N=C(OCc2ccc(F)c(Oc3ccc(Cl)cc3)c2)C(C)C)cc1Cl [Compound 410] | < 100 | 0.0025 | > 0.1 | > 0.1 | > 0.01
CCc1ccccc1N=C(OCc1cccc(Oc2ccc(F)cc2)c1)C(C)C [Compound 411] | < 100 | > 0.05 | > 0.1 | > 0.1 | > 0.01
COc1ccc(N=C(OCc2ccc(F)c(Oc3ccc(Cl)cc3)c2)C(C)C)cc1 [Compound 412] | < 100 | 0.0032 | > 0.1 | > 0.1 | > 0.01
CC(C)C(=Nc1ccc(F)c(I)c1)OCc1cccc(Oc2ccc(Cl)cc2)c1 [Compound 413] | < 100 | > 0.05 | 0.04 | 0.0007 | > 0.01
CC(C)C(=Nc1ccc(S(C)(=O)=O)cc1)OCc1ccc(F)c(Oc2ccc(F)cc2)c1 [Compound 414] | < 100 | > 0.05 | > 0.1 | 0.0024 | > 0.01
C=C(C)C(=Nc1ccc(F)c(Cl)c1)OCc1ccc(F)c(Oc2ccc(Cl)cc2)c1 [Compound 415] | < 100 | 0.0007 | 0.035 | 0.00075 | > 0.01
C=C(C)C(=Nc1ccc(F)c(Cl)c1)OCc1ccc(F)c(Oc2ccccc2)c1 [Compound 416] | < 100 | 0.0035 | 0.018 | 0.00027 | > 0.01
C=C(C)C(=Nc1ccc(F)c(Cl)c1)OCc1cccc(Oc2ccccc2)c1 [Compound 417] | < 100 | 0.004 | 0.04 | 0.0008 | > 0.01
CC(C)C(=Nc1ccc(OCC(F)(F)F)c(Cl)c1)OCc1cccc(Oc2ccc(F)cc2)c1 [Compound 420] | > 100 | 0.004 | 0.05 | 0.00075 | > 0.01
CC(C)C(=Nc1ccc(OCC(F)(F)F)c(Cl)c1)OCc1cccc(Oc2ccc(Cl)cc2)c1 [Compound 421] | > 100 | > 0.05 | < 0.1 | 0.002 | > 0.01
CC(C)C(=Nc1ccc(OCC(F)(F)F)cc1)OCc1ccc(F)c(Oc2ccccc2)c1 [Compound 422] | < 100 | > 0.05 | 0.05 | 0.00075 | > 0.01
CC(C)C(=Nc1ccc(OCC(F)(F)F)cc1)OCc1cccc(Oc2ccccc2)c1 [Compound 423] | > 100 | > 0.05 | > 0.1 | 0.002 | > 0.01
CC(C)C(=Nc1ccc(OCC(F)(F)F)c(Cl)c1)OCc1ccc(F)c(Oc2ccccc2)c1 [Compound 424] | > 100 | 0.002 | 0.035 | 0.00038 | > 0.01
CC(C)C(=Nc1ccc(OCC(F)(F)F)c(Cl)c1)OCc1cccc(Oc2ccccc2)c1 [Compound 425] | > 100 | 0.0035 | > 0.1 | 0.00075 | > 0.01

SMILES | LC50 HF [1] [µg] | LC50 BBA [2] [%] | LC50 TBW E (eggs) [3] [%] | LC50 CL [4] [%] | LC50 MW [5] [%]
CCOc1cccc(N=C(OCc2ccc(F)c(Oc3ccc(F)cc3)c2)C(C)C)c1 [Compound 426] | > 100 | 0.0012 | > 0.1 | 0.002 | > 0.01
CC(C)C(=Nc1ccc(C(F)(F)F)cc1Cl)OCc1cccc(Oc2ccc(F)cc2)c1 [Compound 427] | > 100 | 0.05 | > 0.1 | < 0.1 | > 0.01
CC(C)C(=Nc1ccc(C(F)(F)F)cc1Cl)OCc1ccc(F)c(Oc2ccccc2)c1 [Compound 428] | > 100 | 0.003 | > 0.1 | 0.0017 | > 0.01
CC(C)C(=Nc1ccc(OCC(F)(F)F)c(F)c1)OCc1cccc(Oc2ccc(Cl)cc2)c1 [Compound 429] | > 100 | 0.005 | < 0.1 | 0.0017 | > 0.01
C=C(C)C(=Nc1ccc(C(F)(F)F)cc1)OCc1cccc(Oc2ccccc2)c1 [Compound 430] | < 100 | 0.0006 | 0.032 | 0.001 | 0.004
CC(C)C(=Nc1ccc(C(F)(F)F)c(Br)c1)OCc1ccc(F)c(Oc2ccccc2)c1 [Compound 434] | < 100 | 0.003 | > 0.1 | 0.0017 | 0.009
COc1ccc(N=C(OCc2ccc(F)c(Oc3ccccc3)c2)C(C)C)cc1F [Compound 435] | < 100 | 0.001 | 0.04 | 0.002 | > 0.01
CC(C)C(=Nc1cccc(OC(F)(F)F)c1)OCc1ccc(F)c(Oc2ccccc2)c1 [Compound 437] | < 100 | 0.0003 | 0.025 | 0.00075 | > 0.01
CCc1ccc(N=C(OCc2cccc(Oc3ccc(F)cc3)c2)C(C)C)cc1Cl [Compound 438] | > 100 | 0.0003 | < 0.1 | 0.0009 | > 0.01
CCOc1ccc(N=C(OCc2ccc(F)c(Oc3ccccc3)c2)C(C)C)cc1F [Compound 439] | > 100 | 0.0003 | > 0.1 | 0.00045 | > 0.01
CCCc1ccc(N=C(OCc2ccc(F)c(Oc3ccc(F)cc3)c2)C(C)C)cc1 [Compound 440] | > 100 | 0.0003 | < 0.1 | 0.002 | > 0.01
CC(C)C(=Nc1ccc(Cl)c(F)c1)OCc1ccc(F)c(Oc2ccc(F)cc2)c1 [Compound 441] | < 100 | 0.0003 | 0.016 | 0.000025 | 0.006
C=C(C)C(=Nc1ccc(C(F)(F)F)cc1)OCc1cccc(Oc2ccc(F)cc2)c1 [Compound 442] | < 100 | 0.001 | 0.035 | 0.0007 | > 0.01
CC(C)C(=Nc1ccc(C(F)(F)F)cc1[N+](=O)[O-])OCc1ccc(F)c(Oc2ccccc2)c1 [Compound 445] | < 100 | 0.001 | > 0.1 | 0.00045 | > 0.01
CCOc1ccc(N=C(OCc2cccc(Oc3ccc(F)cc3)c2)C(C)C)cc1Br [Compound 446] | > 100 | 0.001 | < 0.1 | 0.0008 | > 0.01
CC(C)C(=Nc1cccc(C(F)(F)F)c1)OC(C)c1cccc(Oc2ccccc2)c1 (stereo not drawn) [Compound 459] | > 100 | > 0.05 | 0.1 | 0.008 | > 0.01
